Test results reported in ChEMBL document CHEMBL1926669, “Quantitative structure-activity relationships of 1,3,4-thiadiazol-2(3H)-ones and 1,3,4-oxadiazol-2(3H)-ones as human protoporphyrinogen oxidase inhibitors” (Bioorg Med Chem, 2012).

Tests used:
[1] = molecular target: T1, Protoporphyrinogen oxidase (Homo sapiens, UniProt P50336); test: Inhibition of human PPO by capillary electrophoresis method
T1 sequence (P50336 whole entry): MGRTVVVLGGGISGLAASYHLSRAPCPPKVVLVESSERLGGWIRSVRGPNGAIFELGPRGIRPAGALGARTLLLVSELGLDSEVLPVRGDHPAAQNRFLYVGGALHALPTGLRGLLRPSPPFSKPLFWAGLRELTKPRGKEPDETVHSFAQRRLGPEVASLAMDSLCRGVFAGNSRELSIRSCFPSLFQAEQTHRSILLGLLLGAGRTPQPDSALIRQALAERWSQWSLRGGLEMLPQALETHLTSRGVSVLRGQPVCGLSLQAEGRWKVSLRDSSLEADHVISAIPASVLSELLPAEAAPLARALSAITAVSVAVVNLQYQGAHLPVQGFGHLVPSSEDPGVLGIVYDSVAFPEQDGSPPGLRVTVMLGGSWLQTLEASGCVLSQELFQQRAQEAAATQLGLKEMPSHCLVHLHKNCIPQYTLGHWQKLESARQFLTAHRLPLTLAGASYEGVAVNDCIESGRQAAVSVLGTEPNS

[2] = molecular target: T2, Protoporphyrinogen oxidase, mitochondrial (Nicotiana tabacum, UniProt O24164); test: Inhibition of Nicotiana tobacum PPO
T2 sequence (O24164 whole entry): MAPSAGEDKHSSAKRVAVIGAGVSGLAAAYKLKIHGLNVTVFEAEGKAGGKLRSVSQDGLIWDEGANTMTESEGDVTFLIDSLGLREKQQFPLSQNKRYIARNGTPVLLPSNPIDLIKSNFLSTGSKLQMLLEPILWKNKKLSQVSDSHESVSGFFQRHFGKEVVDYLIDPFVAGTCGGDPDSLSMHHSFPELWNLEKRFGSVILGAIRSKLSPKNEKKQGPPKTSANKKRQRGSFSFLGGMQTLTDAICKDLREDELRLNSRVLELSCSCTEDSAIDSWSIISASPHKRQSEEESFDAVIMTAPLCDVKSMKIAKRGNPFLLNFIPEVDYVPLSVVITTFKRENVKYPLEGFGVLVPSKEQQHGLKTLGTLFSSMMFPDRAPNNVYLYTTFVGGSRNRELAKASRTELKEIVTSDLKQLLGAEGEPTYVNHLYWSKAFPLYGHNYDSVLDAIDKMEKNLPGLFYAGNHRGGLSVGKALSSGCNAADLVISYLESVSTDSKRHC

[3] = molecular target: T1, Protoporphyrinogen oxidase; test: Inhibition of human PPO expressed in Escherichia coli BL21(DE3) by continuous fluorometric method

| Ki [1] [µM] | SMILES | other results |
| --- | --- | --- |
| 5.89 | CCOC(=O)C(C)Sc1nc2cc(-n3nc(C(C)(C)C)sc3=O)c(F)cc2s1 (stereo not given) |  |
| 12 | CCOC(=O)C(C)Sc1nc2cc(-n3nc(C(C)(C)C)sc3=O)c(Cl)cc2s1 (stereo not given) |  |
| 17.7 | CCOC(=O)CCCSc1nc2cc(-n3nc(C(C)(C)C)sc3=O)c(Cl)cc2s1 |  |
| 15.6 | CCOC(=O)CSc1nc2cc(-n3nc(C(C)(C)C)sc3=O)c(Br)cc2s1 |  |
| 27.5 | CCOC(=O)CCSc1nc2cc(-n3nc(C(C)(C)C)sc3=O)c(Br)cc2s1 |  |
| 34.4 | CCOC(=O)C(C)(C)Sc1nc2cc(-n3nc(C(C)(C)C)sc3=O)c(Cl)cc2s1 |  |
| 245 | CCOC(=O)CCCSc1nc2cc(-n3nc(C(C)(C)C)sc3=O)c(Br)cc2s1 |  |
| 21.4 | C#CCSc1nc2cc(-n3nc(C(C)(C)C)sc3=O)c(Cl)cc2s1 |  |
| 173 | CCOC(=O)C(C)Sc1nc2cc(-n3nc(C(C)(C)C)sc3=O)c(Br)cc2s1 (stereo not given) |  |
| 0.2 | CCOC(=O)Sc1nc2cc(-n3nc(C(C)(C)C)sc3=O)c(Cl)cc2s1 |  |
| 0.04 | CCOC(=O)Sc1nc2cc(-n3nc(C(C)(C)C)sc3=O)c(F)cc2s1 |  |
| 43.5 | CCOC(=O)C(C)(C)Sc1nc2cc(-n3nc(C(C)(C)C)sc3=O)c(Br)cc2s1 |  |
| 0.34 | CCOC(=O)CSc1nc2cc(-n3nc(C(C)(C)C)sc3=O)c(F)cc2s1 |  |

The remaining lines, values behind:

| SMILES | Ki [1] [µM] | other results |
| --- | --- | --- |
| CCOC(=O)CSc1nc2cc(-n3nc(C(C)(C)C)oc3=O)c(Cl)cc2s1 | 1.07 |  |
| C#CCSc1nc2cc(-n3nc(C(C)(C)C)sc3=O)c(Br)cc2s1 | 20.7 |  |
| CC(C)Oc1cc(-n2nc(C(C)(C)C)oc2=O)c(Cl)cc1Cl [OXADIAZON] | 2.93 |  |
| CCOC(=O)CCCSc1nc2cc(-n3nc(C(C)(C)C)oc3=O)c(F)cc2s1 | 0.36 |  |
| C#CCSc1nc2cc(-n3nc(C(C)(C)C)oc3=O)c(F)cc2s1 | 1.92 |  |
| COC(=O)CSc1nc2cc(-n3nc(C(C)(C)C)sc3=O)c(F)cc2s1 | 3.05 |  |
| CCOC(=O)Sc1nc2cc(-n3nc(C(C)(C)C)oc3=O)c(F)cc2s1 | 0.72 |  |
| O=C(O)c1cc(Oc2ccc(C(F)(F)F)cc2Cl)ccc1[N+](=O)[O-] [ACIFLUORFEN] |  | Ki [2]: 0.07 µM; Ki [3]: 1.71 µM |
| CC(C)OC(=O)CSc1nc2cc(-n3nc(C(C)(C)C)sc3=O)c(F)cc2s1 | 1.26 |  |
| CCOC(=O)C(C)(C)Sc1nc2cc(-n3nc(C(C)(C)C)sc3=O)c(F)cc2s1 | 3.46 |  |
| CCOC(=O)C(C)(C)Sc1nc2cc(-n3nc(C(C)(C)C)oc3=O)c(Br)cc2s1 | 1.58 |  |
